Results reported in paper PMC6318801 (European journal of medicinal chemistry, 2018).
Counter-ions that a name gives are not always drawn. Like-named read-outs stand apart in the source and are kept apart here.

Experiments:
[1] = target: human IDO1 expressed endogenously in HeLa cells (Homo sapiens, UniProt P14902); test: Cell-based IDO1 inhibition assay
[2] = target: T1, mouse IDO2 expressed exogenously in T-Rex cells (Mus musculus, UniProt Q8R0V5); test: Cell-based IDO2 inhibition assay; details: for Greater potency for IDO1 and TDO over IDO2 (cell-based): cell-based IC50 ratio
T1 sequence (Q8R0V5 1-405): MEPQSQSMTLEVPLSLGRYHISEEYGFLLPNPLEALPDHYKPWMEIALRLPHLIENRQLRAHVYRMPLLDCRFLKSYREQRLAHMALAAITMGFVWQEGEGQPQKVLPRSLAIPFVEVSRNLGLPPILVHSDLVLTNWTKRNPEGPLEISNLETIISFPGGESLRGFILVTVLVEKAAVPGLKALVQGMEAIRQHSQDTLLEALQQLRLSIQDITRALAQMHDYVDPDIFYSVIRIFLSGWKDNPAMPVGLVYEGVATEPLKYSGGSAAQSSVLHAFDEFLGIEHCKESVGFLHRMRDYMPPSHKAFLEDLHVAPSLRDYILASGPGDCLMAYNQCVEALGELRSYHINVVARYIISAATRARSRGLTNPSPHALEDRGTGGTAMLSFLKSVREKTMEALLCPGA

[3] = Impact of human serum protein binding on inhibitory activity; type: cell-based; details: Figure S4
IDO1 = IDO1 (Homo sapiens, UniProt P14902); test: Enzyme-based IDO1 inhibition assay; details: for IDO1 % inhibition: isolated enzyme, 100 μM inhibitor
Chain of IDO1 (P14902 whole entry, species assumed): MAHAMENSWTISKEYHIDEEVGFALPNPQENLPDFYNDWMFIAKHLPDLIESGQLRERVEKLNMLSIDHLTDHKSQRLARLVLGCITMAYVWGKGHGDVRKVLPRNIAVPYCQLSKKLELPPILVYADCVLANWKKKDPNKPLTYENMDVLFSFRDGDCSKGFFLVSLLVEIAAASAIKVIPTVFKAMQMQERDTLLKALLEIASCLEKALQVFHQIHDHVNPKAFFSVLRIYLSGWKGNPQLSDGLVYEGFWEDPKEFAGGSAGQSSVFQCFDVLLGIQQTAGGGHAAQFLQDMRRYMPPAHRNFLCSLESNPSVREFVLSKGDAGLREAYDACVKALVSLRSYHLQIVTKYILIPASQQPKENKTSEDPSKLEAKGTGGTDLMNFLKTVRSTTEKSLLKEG

[4] = target: human TDO expressed exogenously in T-Rex cells (Homo sapiens, UniProt P48775); test: Cell-based TDO inhibition assay
Chain of human TDO expressed exogenously in T-Rex cells (P48775 whole entry): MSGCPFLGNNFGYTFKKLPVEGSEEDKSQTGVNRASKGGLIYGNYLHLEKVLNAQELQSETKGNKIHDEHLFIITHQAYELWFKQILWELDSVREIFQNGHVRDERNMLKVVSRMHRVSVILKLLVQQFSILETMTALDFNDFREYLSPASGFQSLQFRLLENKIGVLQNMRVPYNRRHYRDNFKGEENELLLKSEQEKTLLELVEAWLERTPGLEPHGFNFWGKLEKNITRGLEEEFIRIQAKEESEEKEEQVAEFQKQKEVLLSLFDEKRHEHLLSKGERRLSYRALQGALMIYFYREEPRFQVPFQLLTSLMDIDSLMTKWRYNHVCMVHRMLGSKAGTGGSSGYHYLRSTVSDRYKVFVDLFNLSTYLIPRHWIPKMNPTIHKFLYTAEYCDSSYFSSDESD

TDO = TDO (Homo sapiens, UniProt P48775); test: Enzyme-based TDO inhibition assay
Chain of TDO (P48775 whole entry, species assumed): as the sequence (P48775 whole entry) above

IDO2 = IDO2 (Homo sapiens, UniProt Q6ZQW0); test: Enzyme-based IDO2 inhibition assay
Chain of IDO2 (Q6ZQW0 whole entry): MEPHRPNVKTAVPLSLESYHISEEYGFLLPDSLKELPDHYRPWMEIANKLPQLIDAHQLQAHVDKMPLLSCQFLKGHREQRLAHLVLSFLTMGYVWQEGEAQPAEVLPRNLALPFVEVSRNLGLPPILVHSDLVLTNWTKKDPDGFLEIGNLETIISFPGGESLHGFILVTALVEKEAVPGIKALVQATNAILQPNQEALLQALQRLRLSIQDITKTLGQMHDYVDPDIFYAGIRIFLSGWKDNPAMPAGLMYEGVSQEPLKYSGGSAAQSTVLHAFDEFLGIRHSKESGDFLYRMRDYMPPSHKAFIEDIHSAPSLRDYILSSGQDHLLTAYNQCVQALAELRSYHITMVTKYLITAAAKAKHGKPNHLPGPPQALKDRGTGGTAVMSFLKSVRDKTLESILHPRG

[5] = read-out: IDO1 IC50 (cell-based), HeLa cells, racemic mixtures
[6] = read-out: IDO2 IC50 (cell-based), mouse IDO2 in T-Rex cells, racemic mixtures
[7] = read-out: TDO IC50 (cell-based), human TDO in T-Rex cells, racemic mixtures
[8] = isolated enzyme, 100 μM inhibitor

Chain of human IDO1 expressed endogenously in HeLa cells (P14902 whole entry): as the sequence (P14902 whole entry, species assumed) above

## Cl.NOC(CCCC(=O)Nc1ccccc1)c1cccc(Cl)c1 (centres unmarked) [Compound 5, 5-(Aminooxy)-5-(3-chlorophenyl)-N-phenylpentanamide hydrochlorie]
[1]; cell-based IC50 ratio
  Selectivity for IDO1 over IDO2 and TDO (cell-based): more than 20 fold

## Cl.NOC(c1ccccc1)c1ccsc1 (centres unmarked) [Compound 21, O-(phenyl(thiophen-3-yl)methyl)hydroxylamine hydrochloride]
[2]
  Greater potency for IDO1 and TDO over IDO2 (cell-based): roughly 10 fold

## Cl.NOC(c1ccccc1)c1cc(Cl)cc(Cl)c1 (stereo not drawn) [Compound 2, O-(3,5-Dichloro-α-phenylbenzyl)hydroxylamine hydrochloride]
[3]
  Effect of human serum protein binding on inhibitory activity: relatively unaffected

## NOC(c1ccccc1)c1ccc(O)cc1 (stereo not drawn) [Compound 25, O-(4-Hydroxy-α-phenyl)-benzyl hydroxylamine hydrochloride]
IDO1; read-out: IDO1 % inhibition, isolated enzyme, 200 μM inhibitor
  inhibition at 200 µM: 18%

## O-(3-Trifluoromethyl-α-phenylbenzyl)hydroxylamine hydrochloride [Compound 26]
[1]; [5]
  IC50: 1730 nM
[2]; [6]
  IC50: 24.7 µM
[4]; [7]
  IC50: 13.6 µM
TDO; read-out: TDO IC50, isolated enzyme, racemic mixtures
  IC50: 12 µM
IDO1
  IDO1 % inhibition: 18%

## Cl.NOC(c1ccccc1)c1ccc(Cl)cc1Cl (centres unmarked) [Compound 6, O-(2,4-Dichlorophenylbenzyl)hydroxylamine hydrochloride]
[3]
  Effect of human serum protein binding on inhibitory activity: substantial reduction in inhibitory activity

## O-[4-Chloro-α-(2’-methyl,4’-methoxyphenyl)benzenemethyl]hydroxylamine hydrochloride [Compound 23]
[1]; [5]
  IC50: 1760 nM
[2]; [6]
  IC50: 8.77 µM
[4]; [7]
  IC50: 19.1 µM
TDO; [8]
  TDO % inhibition: 66%
IDO1
  IDO1 % inhibition: 85%

## O-(2-Methoxy-α-phenylbenzyl)hydroxylamine hydrochloride [Compound 20]
[1]; [5]
  IC50: 1110 nM
[2]; [6]
  IC50: 16.5 µM
[4]; [7]
  IC50: 48.8 µM
IDO2; [8]
  IDO2 % inhibition: 80.0%

## NOC(CCc1ccccc1)c1ccccc1 (centres unmarked) [Compound 17, O-(1,3-diphenylpropyl)hydroxylamine hydrochloride]
[1]
  IC50: 14700 nM
[2]
  IC50: 19.3 µM
[4]
  IC50: 49.7 µM
TDO; read-out: TDO % inhibition
  inhibition at 100 µM: 89.9%
IDO1
  IC50: 16 µM
IDO2; read-out: IDO2 % inhibition
  inhibition at 100 µM: 76%

## Cl.NOC(c1ccccc1)c1ccccc1F (stereo not drawn) [Compound 16, O-(2-Fluoro-α-phenylbenzyl)hydroxylamine hydrochloride]
[2]
  Greater potency for IDO1 and TDO over IDO2 (cell-based): roughly 10 fold
